The target in data set [1] is T1, ALDH3A1 (Homo sapiens, UniProt P30838).
T1 construct: purchased
T1 sequence (P30838 1-453): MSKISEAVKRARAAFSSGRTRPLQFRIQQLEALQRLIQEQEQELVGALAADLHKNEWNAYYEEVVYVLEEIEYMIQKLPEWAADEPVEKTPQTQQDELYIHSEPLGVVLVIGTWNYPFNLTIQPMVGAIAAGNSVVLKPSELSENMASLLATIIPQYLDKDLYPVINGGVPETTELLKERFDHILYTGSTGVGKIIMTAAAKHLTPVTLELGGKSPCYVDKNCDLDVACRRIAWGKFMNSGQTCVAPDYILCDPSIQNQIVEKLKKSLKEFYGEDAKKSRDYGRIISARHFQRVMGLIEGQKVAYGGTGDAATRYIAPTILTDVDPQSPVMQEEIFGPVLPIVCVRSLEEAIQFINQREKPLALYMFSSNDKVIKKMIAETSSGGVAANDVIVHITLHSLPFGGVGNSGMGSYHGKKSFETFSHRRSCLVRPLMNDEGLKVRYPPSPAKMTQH
Description: Reactivity of probes to recombinant ALDH3A1 (UPLC/MS/MS). The data set is classed as biochemical. To be noted: 10-100 nM ALDH, 10-80 μM compound, Tris buffer pH 7.5, 30 minutes at 37° C., ◯/X not defined by a legend. The method, then: (§1) Human recombinant ALDH1A1/1A3/3A1 was purchased, and 100 mM of KCL, 2 mM of DTT, 1 mM of NAD(P), 10-100 nM of each ALDH, and 10-80 μM of each compound were mixed in Tris buffer (100 mM, pH 7.5), reacted for 30 minutes at 37° C., an equal amount of acetonitrile added, and the reaction stopped. The reaction solution was analyzed by UPLC/MS/MS (Waters). The UPCL chromatogram was carried out over five minutes at a flow rate of 800 μL/min by a linear gradient from 5% acetonitrile 0.01 M ammonium formate/water to 95% acetonitrile 0.01 M ammonium formate/water.

Data set [2] has as its target T2, ALDH1A1 (Homo sapiens, UniProt P00352).
T2 construct: purchased
T2 sequence (P00352 1-501): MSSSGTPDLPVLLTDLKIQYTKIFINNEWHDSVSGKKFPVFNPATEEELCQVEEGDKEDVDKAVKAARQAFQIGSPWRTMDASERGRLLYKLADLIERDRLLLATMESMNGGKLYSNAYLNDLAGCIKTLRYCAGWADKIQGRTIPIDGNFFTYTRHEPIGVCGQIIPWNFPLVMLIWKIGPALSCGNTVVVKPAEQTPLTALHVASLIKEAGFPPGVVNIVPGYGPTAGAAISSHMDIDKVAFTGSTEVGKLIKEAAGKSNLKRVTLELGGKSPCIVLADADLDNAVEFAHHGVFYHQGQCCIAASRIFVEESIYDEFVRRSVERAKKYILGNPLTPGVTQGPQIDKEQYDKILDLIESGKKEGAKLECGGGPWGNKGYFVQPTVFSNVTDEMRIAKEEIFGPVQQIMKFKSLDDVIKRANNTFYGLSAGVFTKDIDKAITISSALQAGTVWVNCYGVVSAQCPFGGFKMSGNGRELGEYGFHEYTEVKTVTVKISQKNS
Description: Reactivity of probes to recombinant ALDH1A1 (UPLC/MS/MS detection of aldehyde and carboxylic acid forms). It is filed as biochemical. Particulars: 10-100 nM ALDH, 10-80 μM compound, Tris buffer pH 7.5, 30 minutes at 37° C., ◯/X not defined by a legend. The method, then: as §1, with “formate/water. An aldehyde-form and carboxylic acid-form probe were detected by the absorbance at a wavelength of 504 nm, and m/z of the MS spectrum at each peak was confirmed to agree with the expected m/z.” for “formate/water.”

Data set [3] deals with T2, ALDH1A1. Description: Kinetic characteristics (Michaelis-Menten Km, Kcat) with ALDH1A1. It is filed as biochemical. Particulars: five minutes at 37° C., Tris buffer pH 7.5. The method, then:
as §1, with “formate/water. An aldehyde-form and carboxylic acid-form probe were detected by the absorbance at a wavelength of 504 nm, and m/z of the MS spectrum at each peak was confirmed to agree with the expected m/z.” for “formate/water.”
(§2) For the reaction, 100 mM of KCL, 2 mM of DTT, 1 mM of NAD(P), and five to six concentrations within the range of 10-100 nM of each ALDH and 0.1-80 μM of each probe were selected, mixed in Tris buffer (100 mM, pH 7.5), and reacted for five minutes at 37° C.; an equal amount of acetonitrile was added, and the reaction was stopped. Detection of the aldehyde-form/carboxylic acid-form probes was carried out using the same method as described above by UPLC/MS/MS. Km and Kcat were calculated by fitting the reaction rate at each probe concentration obtained to the Michaelis-Menten equation. A Kaleida Graph ver. 4.1 (Hulinks, Inc.) was used in fitting.

In data set [4] the target is T1, ALDH3A1. Description: Kinetic characteristics (Michaelis-Menten Km, Kcat) with ALDH3A1. The data set is classed as biochemical. The method, then:
as §1, with “formate/water. An aldehyde-form and carboxylic acid-form probe were detected by the absorbance at a wavelength of 504 nm, and m/z of the MS spectrum at each peak was confirmed to agree with the expected m/z.” for “formate/water.”
as §2
The Kcat ratio (Kcat of ALDH3A1/Kcat of ALDH1A1) was calculated for probe 1, probe 3, and probe 5 as an indicator of ALDH1A1/ALDH3A1 specificity because the probe reaction rate at the actual probe use concentration is believed to be close to Vmax since Km is relatively small (Table 5).

A further data set concerns OE21 cell line. Description: Cell imaging of OE21 cells against CB7 negative control. It is filed as cell-based. Particulars: probe 5: 40 μM, 90 minutes at 37° C., CB7 10 μM control. The procedure:
40 μM of probe 5 was added to culture medium (RPMI 1640, 10% FBS, 15 mM HEPES, phenol red-free). After culturing for 90 minutes at 37° C., the cells were washed using a chilled medium and examined under a confocal microscope. A sample with a specific ALDH3A1 inhibitor (1-[(4-fluorophenyl)sulfonyl]-2-methyl-1H-benzimidazole, CB7, 10 μM) added served as a negative control. Excitation was provided by a 488 nm laser, and observation was carried out at wavelengths of […] in detection.

Data set [5] in a line: HPLC (LC/MS) retention time as measure of hydrophilicity / membrane permeability. Particulars: C18 column; 20% B 2.5 min, 20%-->100% B 5 min, 500 μL/min; neutral conditions; mean±SD of three tests. It is filed as physicochemical. The method, then: In the present invention, it is preferable to use the retention time on an HPLC chromatogram as the measure of hydrophilicity.
HPLC conditions: taking solvent A to be 0.01 M ammonium formate/water and solvent B to be 80% acetonitrile 0.01 M ammonium formate/water, chromatography is carried out under conditions of 20% solvent B for 2.5 minutes followed by a 5-minute linear gradient of solvent B from 20% to 100% (flow rate 500 μL/min).
A C18 column (HP 3 μm, inner diameter: 2.1 mm, length: 150 mm, GL Science), for example, can be used suitably as the column.
The water solubility was verified by LC/MS under neutral conditions to compare the membrane permeability of the five probes produced above and ALDEFLUOR. The reaction was stopped after advancing the reaction to the point that each probe was present as both a carboxylic acid form and an aldehyde form using a suitable isoform and concentration of ALDH, and analysis was conducted by LC/MS (Agilent 1200/6130 quadrupole LC/MS system). A C18 column (HP 3 μm, inner diameter: 2.1 mm, length: 150 mm, GL Science) was used as the column. HPLC chromatograms were carried out by 20% B for 2.5 minutes followed by a five-minute linear gradient (flow rate: 500 μL/min) from 20% to 100% B, taking solvent A to be 0.01 M ammonium formate/water and solvent B to be 80% acetonitrile 0.01 M ammonium formate/water. The probe containing BODIPY was detected by the absorbance at a wavelength of 504 nm and the probe containing TG at a wavelength of 495 nm, and m/z of the MS spectrum at each peak was confirmed to agree with the expected m/z. Three independent tests were run, and the mean±SD was calculated. […] Given that imaging of probe 1 was not successful, there was thought to be a threshold at which the membrane permeability changes rapidly between this 6.741 minutes and 7.098 minutes (band in FIG. 2).

The next data set deals with T3, ALDH1A3 (Homo sapiens, UniProt P47895).
T3 construct: purchased
T3 sequence (P47895 1-512): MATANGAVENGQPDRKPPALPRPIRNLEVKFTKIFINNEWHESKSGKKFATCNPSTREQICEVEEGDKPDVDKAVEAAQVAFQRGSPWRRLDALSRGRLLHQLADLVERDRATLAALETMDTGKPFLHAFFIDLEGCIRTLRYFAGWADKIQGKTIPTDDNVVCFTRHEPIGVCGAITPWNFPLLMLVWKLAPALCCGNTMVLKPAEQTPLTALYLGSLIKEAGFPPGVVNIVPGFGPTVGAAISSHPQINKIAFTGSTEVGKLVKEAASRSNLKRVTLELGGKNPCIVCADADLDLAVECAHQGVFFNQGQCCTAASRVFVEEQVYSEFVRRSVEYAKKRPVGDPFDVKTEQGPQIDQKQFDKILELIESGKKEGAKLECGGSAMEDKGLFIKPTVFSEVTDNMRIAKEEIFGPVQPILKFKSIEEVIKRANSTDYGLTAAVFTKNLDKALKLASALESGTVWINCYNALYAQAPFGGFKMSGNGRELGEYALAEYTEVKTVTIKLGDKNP
Description: Reactivity of probes to recombinant ALDH1A3 (UPLC/MS/MS). The data set is classed as biochemical. Particulars: 10-100 nM ALDH, 10-80 μM compound, Tris buffer pH 7.5, 30 minutes at 37° C.; ◯/X not defined by a legend. The procedure: as §1

The subject of another data set is A549 cells. The source says: An esophageal squamous cell carcinoma cell line (OE21 cell line) which are cells that express a high level of ALDH3A1 was used as the cells.
Substrate in data set [6]: CCN(CCOCCNC(=O)c1ccc(-c2c3ccc(=O)cc-3oc3cc(O)ccc23)c(C)c1)c1ccc(C=O)cc1
Description: Kinetic characteristics (Michaelis-Menten Km, Kcat) with ALDH1A1. The data set is classed as biochemical, Human. Particulars: other: five minutes at 37° C., Tris buffer pH 7.5. The procedure:
as §1, with “formate/water. An aldehyde-form and carboxylic acid-form probe were detected by the absorbance at a wavelength of 504 nm, and m/z of the MS spectrum at each peak was confirmed to agree with the expected m/z.” for “formate/water.”
as §2

The mark [7] stands for this setting: five minutes at 37° C., Tris buffer pH 7.5.

For “2-(N-ethyl-N-(4-formylphenyl)amino)ethyl-3-(1,3-dimethyl-4,4-difluoro-4-bora-3a,4a-diaza-s-indacen-5-yl)-propionamide [Probe 3]”, the “Reactivity to ALDH3A1” value on ALDH3A1 [1] is “◯”. Moreover, the “Reactivity to ALDH3A1” value on ALDH3A1 [1] (listed as compound 3) was “reacted with ALDH1A1 and ALDH3A1”. Further, at ALDH1A1 [2], the “Reactivity to ALDH1A1” value is “◯”. For the same molecule, at ALDH1A1 [2] (listed as compound 3), the “Reactivity to ALDH1A1” value is “reacted with ALDH1A1 and ALDH3A1”. Moreover, on ALDH1A1 [3], the “Kcat ALDH1A1” value worked out at 0.101 ± 0.00333 s⁻¹ and the Michaelis constant (Km) amounted to 0.17 ± 0.03 µM. For the same molecule, at ALDH3A1 [4] (setting [7]), the “Kcat ALDH3A1” value amounted to 0.203 ± 0.0033 s⁻¹ and the Km was 0.87 ± 0.07 µM. Besides, the “Kcat ratio (Kcat of ALDH3A1/Kcat of ALDH1A1)” value at ALDH3A1 [4] (indicator of ALDH1A1/ALDH3A1 specificity) is recorded as 2. For the same molecule, in the data set on OE21 cell line, the “Brightness of cells in imaging compared to negative control (CB7)” value is “no evident difference in brightness could be found in comparison to the negative control”. Besides, in [5], the “Retention Time, Aldehyde form” value turned out to be 9.153 ± 0.010 min and the “Retention Time, carboxylate (carboxylic acid form)” value stood at 7.920 ± 0.052 min.
On to “N-(4-formylphenyl)-3-(1,3-dimethyl-4,4-difluoro-4-bora-3a,4a-diaza-s-indacen-5-yl)-propionamide [Probe 2]”, for which the “Reactivity to ALDH3A1” value on ALDH3A1 [1] is given as “presented reactivity only with ALDH1A1”. Further, at ALDH1A1 [2], the “Reactivity to ALDH1A1” value was “◯”. Further, at ALDH1A1 [2] (listed as compound 2), the “Reactivity to ALDH1A1” value is on record as “presented reactivity only with ALDH1A1”. For the same molecule, at ALDH1A1 [3], the “Kcat ALDH1A1” value turned out to be 3.4 ± 0.415 s⁻¹ and the Km was 5.76 ± 2.39 µM. The “Reactivity to ALDH1A3” value on ALDH1A3 is “presented reactivity only with ALDH1A1”. Further, in the data set on A549 cells, the “Brightness of cells in imaging compared to negative control” value is reported as “no evident difference in brightness was found in comparison to the negative control”. Moreover, in [5], the “Retention Time, Aldehyde form” value stood at 9.330 ± 0.002 min and the “Retention Time, carboxylate (carboxylic acid form)” value is 7.284 ± 0.047 min.

B1: ALDH1A1 (Homo sapiens) (protein)
chain: T2 sequence (P00352 1-501)
notes: purchased
B1: in data set [6], the Km stood at 0.26 ± 0.05 µM and the turnover number (kcat) came out at 0.017 ± 0.00067 s⁻¹.

Source of the values: US20200207989A1, “FLUORESCENT PROBE FOR ALDH3A1 DETECTION” (The University of Tokyo, priority 2016, published 2020).
